Test results: article PMC10057893, “Synthesis and Biological Evaluation of New Schiff Bases Derived from 4-Amino-5-(3-fluorophenyl)-1,2,4-triazole-3-thione” (Molecules, 2023)
pIC50: −log10 of the molar value. In brackets after ≈: the same amount, converted by molar mass. Like-named read-outs stand apart in the source and are kept apart here.

How the values were obtained:
[1] = test system: yeast reference strains (Candida spp.); test: Positive control antifungal, broth microdilution MIC; assay type: cell-based; conditions: range over yeast reference strains
Experimental: The reference antibiotics used during our studies for the selected species of reference bacteria were ciprofloxacin and cefuroxime (Merck KGaA, Darmstadt, Germany). Nystatin (Merck KGaA, Darmstadt, Germany), a known antifungal antibiotic, was used as a positive control for Candida spp.
All reference antimicrobials against bacteria or fungi were tested in a final concentration range from 0.0049 to 10 µg/mL. The tested Schiff bases were two-fold diluted in the concentration range from 0.49 to 1000 μg/mL in culture broth medium for bacteria or fungi. The medium with DMSO at the final concentrations and without the tested Schiff bases served as a control—no microbial growth inhibition was observed. Three types of control were also carried out simultaneously: (1) serial dilution of the tested Schiff bases in broth medium (without bacteria or fungi) in the same concentration range, (2) a growth control for each strain in broth medium and agar medium for bacteria or fungi, and (3) a negative control of sterile broth or agar medium. […]
After incubation, 5 μL of the broth media cultured with bacteria or fungi were removed from each well of the plates used in the MIC experiments. […] After incubation, a visual reading of MBC or MFC values was made. […]

C. albicans = test system: C. albicans; design: method as in PMID 25412038; conditions: cited from earlier work
PC3 = test: MTT cell viability assay; assay type: cell-based, human; conditions: Homo sapiens, PC-3, PC3, MTT, read-out: Cytotoxic activity IC50; for pIC50: 72 h (table footnote); for IC50: same value in µg/mL
Experimental: (§1) All the cell lines were purchased from the American Type Culture Collection (ATCC, Rockville, MD, USA) and cultured in strictly defined conditions according to the recommended ATCC protocol. The PC3 cells were cultured in RPMI 1640 (Roswell Park Memorial Institute, Biowest SAS, Nuaillé, France), while the MDA-MB-231 and HaCaT cells were maintained in DMEM (Dulbecco’s Modified Eagle’s Medium, Biowest SAS, Nuaillé, France) supplemented with 1% streptomycin and penicillin and in 10% heat-inactivated fetal bovine serum (FBS, Gibco BRL San Francisco, CA, USA) with 1% streptomycin and penicillin. The cells were incubated in a 37 °C/5% CO2 humidified incubator. They were cultured until 80–90% confluence was achieved. Then, they were harvested by treatment with 0.25% trypsin-0.02% EDTA (Gibco BRL, San Francisco, CA, USA) and used in the experiments. Untreated cells were used as a control. […] After 24 h of incubation, the culture medium was replaced with a fresh medium. […] Then, the medium was aspirated and formed formazan crystals were solubilized by adding isopropanol-DMSO mixture (1:1 vol). The intensity of the dissolved crystals was measured using a UVM 340 reader (ASYS Hitech GmbH, Eugendorf, Austria) at a wavelength of 570 nm. Cell viability was estimated by the percentage of MTT reduction in cells to which the tested compounds were added, compared to the control sample, where only the medium was added. The experiments were repeated three times. The IC50 was calculated using GraphPad Prism 9.0.0 (GraphPad Software).

MDA-MB-231 = test: MTT cell viability assay; assay type: cell-based, human; conditions: Homo sapiens, MDA-MB-231, MTT, read-out: Cytotoxic activity IC50; for pIC50: 72 h (table footnote); for IC50: same value in µg/mL
Experimental: as §1

[2] = test system: tested strains of bacteria; design: method as in PMID 25412038; conditions: cited from earlier work
[3] = test system: Bacillus subtilis ATCC 6633; test: Broth microdilution MIC/MBC, antibacterial; assay type: cell-based; conditions: ATCC6633
Experimental: (§2) The minimal inhibitory concentration (MIC) was determined with the microdilution technique using 96-well polystyrene microplates (Medlab, Poland), as indicated by the European Committee on Antimicrobial Susceptibility Testing (EUCAST) guidelines. In this process, stock solutions of each tested Schiff base dissolved in dimethylsulphoxide (DMSO, Stanlab, Poland) were used at a concentration of 50 mg/mL. Before in vitro antibacterial activity detection, the basic concentration of 1000 µg/mL of each compound was prepared with Mueller–Hinton broth medium (MHB, BioMaxima, Lublin, Poland). The experiment was prepared using Mueller–Hinton broth medium in 96-well microplates. A series of two-fold dilutions of the tested compounds in the concentration range from 0.49 to 1000 μg/mL was made in culture broth medium. Then, 2 μL of bacterial inoculum with a density of 0.5 McFarland standard was added to each well. Each well was filled with a total volume of 100 μL. Then, the microtiter plates were incubated for 18 ± 2 h at 35 °C. After the incubation, the results were spectrophotometrically determined in Biotek ELx800 (Biokom, Janki, Poland) at 600 nm (OD600). The lowest concentration of the tested compounds with the absence of bacterial growth was determined as an MIC. Three replicates for each strain and compound were performed.
(§3) After incubation, 5 μL of the broth media cultured with bacteria or fungi were removed from each well of the plates used in the MIC experiments. Next, they were culturd onto the surface of the MHA medium (BioMaxima, Lublin, Poland) plate for bacteria or MHA +2% glucose plate for yeasts. The inoculated plates were incubated in the conditions mentioned above. After incubation, a visual reading of MBC or MFC values was made. […] Three replicates for each strain and compound were performed.

[4] = test system: Escherichia coli ATCC 25922; test: Broth microdilution MIC/MBC, antibacterial; assay type: cell-based; conditions: ATCC25922, Escherichia coli ATCC 25922
Experimental: as §2, §3

[5] = test system: Staphylococcus epidermidis ATCC 12228; test: Broth microdilution MIC/MBC, antibacterial; assay type: cell-based; conditions: ATCC12228
Experimental: as §2, §3

[6] = test system: Micrococcus luteus ATCC 10240; test: Broth microdilution MIC/MBC, antibacterial; assay type: cell-based; conditions: ATCC10240
Experimental: as §2, §3

[7] = test system: Pseudomonas aeruginosa ATCC 27853; test: Broth microdilution MIC/MBC, antibacterial; assay type: cell-based; conditions: ATCC27853
Experimental: as §2, §3

[8] = test system: Staphylococcus aureus ATCC 6538; test: Broth microdilution MIC/MBC, antibacterial; assay type: cell-based; conditions: ATCC6538
Experimental: as §2, §3

[9] = test system: Klebsiella pneumoniae ATCC 13883; test: Broth microdilution MIC/MBC, antibacterial; assay type: cell-based; conditions: ATCC13883, Klebsiella pneumoniae ATCC 13883
Experimental: as §2, §3

MTT cell viability assay = assay type: cell-based; conditions: human, HaCaT cells (immortal keratinocytes), HaCaT normal cell line, read-out: Cytotoxic activity IC50 (converted)
Experimental: as §1

[10] = test system: Candida glabrata ATCC 90030; test: Broth microdilution MIC/MFC, antifungal; assay type: cell-based; conditions: Nakaseomyces glabratus, ATCC90030
Experimental: (§4) To determine the antifungal activity of the newly synthesized Schiff bases against the reference strains of Candida spp., the broth microdilution method was used according to the EUCAST [52] and Clinical and Laboratory Standards Institute (CLSI) guidelines with some modifications to the medium. Before in vitro antifungal activity detection, the basic concentration of 1000 µg/mL of each compound was prepared with Mueller–Hinton broth (BioMaxima, Lublin, Poland) supplemented with 2% glucose (MHB+2% glucose). […] The final concentrations of the Schiff bases ranged from […] to 1000 µg/mL. All the reference strains of Candida spp. used were first subcultured to the Mueller–Hinton agar medium (BioMaxima, Lublin, Poland) with 2% glucose (MHA +2% glucose) at 37 °C for 24 h. Next, 2 µL of appropriate fungal suspensions was added to each well containing 100 µL of MHB + 2% glucose and the various concentrations of the tested Schiff bases.
as §3

[11] = test system: Candida tropicalis ATCC 1369; test: Broth microdilution MIC/MFC, antifungal; assay type: cell-based; conditions: ATCC1369
Experimental: as §4, §3

[12] = test system: Candida albicans ATCC 10231; test: Broth microdilution MIC/MFC, antifungal; assay type: cell-based; conditions: for MIC: ATCC10231
Experimental: as §4, §3

Candida auris CDC B11903 = test: Broth microdilution MIC/MFC, antifungal; assay type: cell-based; conditions: Candidozyma auris, CDCB11903
Experimental: as §4, §3

[13] = test system: Candida glabrata ATCC 15126; test: Broth microdilution MIC/MFC, antifungal; assay type: cell-based; conditions: Nakaseomyces glabratus, ATCC15126
Experimental: as §4, §3

[14] = test system: Candida lusitaniae ATCC 3449; test: Broth microdilution MIC/MFC, antifungal; assay type: cell-based; conditions: Clavispora lusitaniae, ATCC3449
Experimental: as §4, §3

[15] = test system: Candida krusei ATCC 14243; test: Broth microdilution MIC/MFC, antifungal; assay type: cell-based; conditions: Pichia kudriavzevii, ATCC14243
Experimental: as §4, §3

Compound	pIC50 (PC3)	IC50 (PC3) [µg/mL]	pIC50 (MDA-MB-231)	IC50 (MDA-MB-231) [µg/mL]	melting point [°C]	MIC [3] [µg/mL]	MIC [4] [µg/mL]	MIC [5] [µg/mL]	MIC [6] [µg/mL]	MIC [7] [µg/mL]	MBC [8] [µg/mL]	MIC [8] [µg/mL]	MIC [9] [µg/mL]	IC50 at 72 h (MTT cell viability assay; 72 h (table footnote)) [µM]	IC50 at 72 h (MTT cell viability assay; same value in µg/mL) [µg/mL]	MIC [10] [µg/mL]	MIC [11] [µg/mL]	MIC [12] [µg/mL]	MIC (Candida auris CDC B11903) [µg/mL]	MIC [13] [µg/mL]	other results
C[C@@H]1[C@H](O)[C@@H](C)/C=C/C=C/CC/C=C/C=C/C=C/C=C/C(O[C@H]2O[C@H](C)[C@@H](O)[C@H](N)[C@@H]2O)CC2O[C@](O)(CC(O)C(O)CCC(O)CC(O)CC(O)CC(=O)O[C@H]1C)CC(O)C2C(=O)O (stereo partly drawn) [Nystatin]	–	–	–	–	–	–	–	–	–	–	–	–	–	–	–	–	–	–	–	–	MIC [1]: 0.24 to 0.48 µg/mL; MBC ([1]; printed MIC = MBC): 0.24 to 0.48 µg/mL
Fc1ccc(C=Nn2c(-c3cccc(F)c3)n[nH]c2=S)cc1 [RO7, 4-[(4-fluorobenzylidene)amino]-5-(3-fluorophenyl)-2,4-dihydro-3H-1,2,4-triazole-3-thione]	< 4.00	> 31.6	< 4.00	> 31.6	217 to 218	> 1000	> 1000	500 (≈ 1.58 mM)	250 (≈ 0.79 mM)	> 1000	> 1000	500 (≈ 1.58 mM)	> 1000	> 100	> 31.6	> 1000	> 1000	> 1000	> 1000	> 1000	MIC (C. albicans): 4 µg/mL (≈ 0.0126 mM); MICs [2]: 16 to 125 µg/mL; MBC [5]: > 1000 µg/mL; MBC [6]: > 1000 µg/mL; MIC [14]: > 1000 µg/mL; MIC [15]: > 1000 µg/mL
Cc1ccccc1C=Nn1c(-c2cccc(F)c2)n[nH]c1=S [RO10, 5-(3-fluorophenyl)-4-[(2-methylbenzylidene)amino]-2,4-dihydro-3H-1,2,4-triazole-3-thione]	< 4.00	> 31.2	< 4.00	> 31.2	223 to 224	> 1000	> 1000	1000 (≈ 3.2 mM)	> 1000	> 1000	> 1000	125 (≈ 0.4 mM)	> 1000	> 100	> 31.2	500 (≈ 1.6 mM)	500 (≈ 1.6 mM)	500 (≈ 1.6 mM)	1000 (≈ 3.2 mM)	500 (≈ 1.6 mM)	MFC [10]: > 1000 µg/mL; MFC [11]: > 1000 µg/mL; MFC ([12]; ATCC10231, read-out: MFC): > 1000 µg/mL; MFC [13]: > 1000 µg/mL; MIC [14]: > 1000 µg/mL; MIC [15]: > 1000 µg/mL
